# Data taken from PMC7815716, “Mechanistic basis of breast cancer resistance protein inhibition by new indeno[1,2-b]indoles” (Scientific Reports, 2021).
# Read-outs that look alike come from different tables or passages of the source.
# Assays:
# ABCG2 [1] = target: T1, ABCG2 (Homo sapiens, UniProt Q9UNQ0); test: Inhibition of ABCG2-mediated mitoxantrone efflux (flow cytometry); assay type: cell-based; design: expressed in transfected cells; host or cells: HEK293; conditions: for inhibition at 30 min: human, probe mitoxantrone (10 µM), from IC50 fitted curves, HEK293-ABCG2, mitoxantrone, 100% = Ko143 0.5 µM, read-out: IMAX (%) ± SD, maximal inhibition percentage; for Class of inhibitor by IMAX (complete or partial): threshold at 80% on IMAX values
# T1 sequence (Q9UNQ0 1-655): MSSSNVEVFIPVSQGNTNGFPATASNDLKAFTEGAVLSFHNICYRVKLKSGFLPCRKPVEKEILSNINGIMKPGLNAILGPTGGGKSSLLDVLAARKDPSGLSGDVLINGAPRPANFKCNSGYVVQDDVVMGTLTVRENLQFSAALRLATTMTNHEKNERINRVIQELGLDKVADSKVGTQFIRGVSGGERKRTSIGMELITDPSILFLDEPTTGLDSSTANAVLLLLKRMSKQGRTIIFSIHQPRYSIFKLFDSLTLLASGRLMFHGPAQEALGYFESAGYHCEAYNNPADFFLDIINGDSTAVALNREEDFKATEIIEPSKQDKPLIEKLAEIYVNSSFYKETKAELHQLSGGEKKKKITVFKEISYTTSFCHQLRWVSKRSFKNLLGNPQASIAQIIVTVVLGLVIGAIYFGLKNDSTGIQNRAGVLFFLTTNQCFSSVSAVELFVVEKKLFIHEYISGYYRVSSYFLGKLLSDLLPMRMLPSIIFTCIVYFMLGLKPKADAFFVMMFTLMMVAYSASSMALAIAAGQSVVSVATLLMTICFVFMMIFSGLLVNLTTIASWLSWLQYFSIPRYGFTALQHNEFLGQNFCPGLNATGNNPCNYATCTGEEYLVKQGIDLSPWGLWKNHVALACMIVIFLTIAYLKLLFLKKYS
# Experimental: ABCG2 inhibition assays were carried out on HEK293 WT and HEK293-ABCG2 cells. Cells were seeded at the density of 1 × 10^5 cells/well in 24 well culture plates and incubated for 48 h at 37 °C under 5% CO2. Cells were treated with compounds and 10 μM of mitoxantrone for 30 min at 37 °C and 5% CO2. After incubation the cells were washed with PBS, trypsinized and resuspended in ice cold PBS. The intracellular drug fluorescence was monitored with a FACS Calibur cytometer (Becton Dickinson) using the FL4 channel, with at least 10,000 events collected. The maximal fluorescence (taken as 100%) was determined with the difference between the mean fluorescence of HEK-ABCG2 cells incubated with 0.5 μM Ko143 (ABCG2 reference inhibitor) or by using the HEK293 WT cell line as a control and cells without inhibitor (mitoxantrone alone). The percent of inhibition was determined as previously described. For bimodulation assays the cells were concomitantly treated with 10 μM of one or two combined inhibitors under similar conditions as described previously. For washing assays, cells were treated with 10 μM concentrations of compounds for 30 min. Then, the medium with the inhibitor was removed and the cells were washed with PBS and incubated only with culture medium for different periods of time (0.5 and 3 h). After incubation, cells were exposed to 5 µM mitoxantrone for 30 min, and then analyzed by flow cytometry. The percentage of transport inhibition was calculated by the following equation: %Inhibition=C-S/I-S×100 where “C” corresponds to the intracellular fluorescence of cells in the presence of the tested compounds and substrate (mitoxantrone to ABCG2, Rhodamine 123 to ABCB1 and calcein to ABCC1), “S” corresponds to the intracellular fluorescence of cells in the presence of substrate alone, and “I” corresponds to the intracellular fluorescence of cells in the presence of the substrate and reference inhibitor (Ko143 to ABCG2, GF120918 to ABCB1 and verapamil to ABCC1).
# ABCG2 [2] = target: T1, ABCG2; test: ABCG2 ATPase activity, High-Five insect cell total membranes; assay type: biochemical; design: expressed in transfected cells
# Experimental: The ATPase assay was carried out as previously described. High-Five insect cell total membranes overexpressing ABCG2 were used at a concentration of 5 µg protein/tube in a final volume of 100 µL. The membranes were incubated in assay buffer containing 50 mM Tris–HCl, pH 6.8, 150 mM N-methyl-D-glucamine (NMDG)-Cl, 5 mM sodium azide, 1 mM EGTA, 1 mM ouabain, 2 mM DTT, and 10 mM MgCl2, in the presence or absence of sodium orthovanadate (0.3 mM). The protein-buffer mix was treated with the compounds at increasing concentrations (0.001–5 µM) and incubated for 20 min at 37 °C in the presence of ATP (5 mM). The reaction was stopped with the addition of 100 µL of 5% SDS, for color development was added 400 µL of Pi solution (sulfuric acid 36.2 N, water, ammonium molybdate and antimony potassium tartrate) and 200 µL of 1% ascorbic acid. The absorbance was measured after 10 min at 880 nm using a spectrophotometer Ultrospec 3100 pro (Amersham Biosciences).
# Table S2. Effect of indeno[1,2-b]indole derivatives on the ATPase activity of ABCG2.The vanadate-sensitive ATPase activity of ABCG2 was measured using the total membranes of High-Five insect cells expressing this transporter as described previously [S5]. The EC50 (concentration required to achieve 50% stimulation) is given as the concentration ± SD (nM) of three independent experiments in duplicate.
# ABCG2 [3] = target: T1, ABCG2; test: Thermostabilization assay (ATPase activity after heating); assay type: biochemical; conditions: 10 µM, curves with or without ATP
# Experimental: The thermal stability assay was performed according to the published. Total membrane prepared from High Five insect cells overexpressing the ABCG2 at 3 µg protein/tube concentration were incubated with assay buffer composed by 50 mM Tris–HCl, pH 6.8, 150 mM N-methyl-D-glucamine (NMDG)-Cl, 5 mM sodium azide, 1 mM ouabain and 2 mM DTT in the presence or absence of 0.3 mM orthovanadate at final volume of 50 µL. To evaluate the effect of those inhibitors over thermal stability, each sample was prepared with 12.5 mM MgCl2 or 6.25 mM ATP and incubated with a temperature range from 37 to 71 °C for 10 min using a thermocycler C1000 Touch (Bio-Rad, Hercules, CA). After incubation, 10 µL of 25 mM ATP or 50 mM MgCl2 (5 and 10 mM final concentration, respectively) was added and incubated at 37 °C/20 min to allow ATP hydrolysis. The reaction was stopped with the addition of 50 µL of Pi solution containing 1% ammonium molibdate, 2.5 N H2SO4 and 0.014% potassium-antimony tartrate. To evaluate the absorbance, the samples were transferred to a 96 well plate (50 µL/well), added 150 µL of 0.33% sodium ascorbate solution. The absorbance was measured after 15 min incubation at room temperature using the microplate reader Spectramax iD3 (Molecular Devices, San Jose, CA). The sensitive activity to vanadate (Vi) was calculated as the difference between the activity in the absence of Vi minus the activity in the presence of Vi to each temperature.
# [4] = EC50 (nM ± SD) values of stimulation on the ATPase activity of ABCG2, vanadate-sensitive ATPase, High-Five insect cell total membranes
# [5] = EC50 of stimulation of ABCG2 ATPase activity, approximate values
Structure (SMILES),"IC50 (ABCG2 [1]; HEK293-ABCG2 cells, mitoxantrone 10 µM, 30 min, read-out: IC50 (µM) ± SD, inhibition of ABCG2-mediated mitoxantrone efflux) [µM]",inhibition at 30 min (ABCG2 [1]; HEK293-ABCG2 cells) [%],Class of inhibitor by IMAX (complete or partial) (ABCG2 [1]),"EC50 (ABCG2 [2]; approximate values, read-out: EC50 of stimulation of ABCG2 ATPase activity) [nM]","EC50 (ABCG2 [2]; vanadate-sensitive ATPase, High-Five insect cell total membranes, read-out: EC50 (nM ± SD) values of stimulation on the ATPase activity of ABCG2) [nM]",melting point [°C],Thermostabilization effect (ABCG2 [3]),IC50 (ABCG2 [1]) [µM],EC50 (ABCG2 [2]; [4]) [nM],EC50 (ABCG2 [2]; [5]) [nM]
"COc1cc2c(cc1OC)-c1c(c3c(n1CCc1ccccc1)CC(C)CC3=O)C2=O (stereo not shown) [5e, 2,3-Dimethoxy-7-methyl-5-phenethyl-5,6,7,8-tetrahydroindeno[1,2-b]indole-9,10-dione]",0.15 ± 0.08,36.9 ± 1.16,partial (partial (IMAX ≤ 80% of ABCG2 inhibition)),~170,170 ± 11,235,moderate effect,–,–,–
"COc1ccccc1CCn1c2c(c3c(O)cc(C)cc31)C(=O)c1ccccc1-2 [6a, 9-Hydroxy-7-methyl-5-(2-methoxyphenethyl)-5H-indeno[1,2-b]indol-10(5H)-one]",–,62.6 ± 2.3,partial (partial (IMAX ≤ 80% of ABCG2 inhibition)),–,–,–,moderate effect,0.21 ± 0.03,2.9 ± 0.45,~3
"COc1ccc2[nH]cc(CCn3c4c(c5c(O)cccc53)C(=O)c3ccccc3-4)c2c1 [6c, 9-Hydroxy-5-(2-(5-methoxy-1H-indol-3-yl)ethyl)indeno[1,2-b]indol-10(5H)-one]",–,90.5 ± 8.07,–,–,–,95,most pronounced effect,0.48 ± 0.1,4.4 ± 0.71,~3
"COc1cccc(CCn2c3c(c4c(O)cccc42)C(=O)c2ccc(O)cc2-3)c1 [6d, 3,9-Dihydroxy-5-(3-methoxyphenethyl)indeno[1,2-b]indol-10(5H)-one]",–,84.8 ± 2.51,–,–,–,198,most pronounced effect,0.19 ± 0.04,3.2 ± 0.44,~3
